Experimental data from article PMC11235583, “Structural basis of odor sensing by insect heteromeric odorant receptors” (Science (New York, N.Y.), 2024).

How the values were obtained:
[1] = biological target: T1, AaOR10/Orco (Ae. aegypti OR10 with A. bakeri Orco) (Aedes aegypti, UniProt Q177X3); experiment: whole-cell voltage clamp, HEK293T cells; type: cell-based; settings: agonist
T1 construct: gene GPRor10; co-expressed in HEK293 cells; with Odorant receptor coreceptor (Apocrypta bakeri)
T1 sequence (Q177X3 1-375): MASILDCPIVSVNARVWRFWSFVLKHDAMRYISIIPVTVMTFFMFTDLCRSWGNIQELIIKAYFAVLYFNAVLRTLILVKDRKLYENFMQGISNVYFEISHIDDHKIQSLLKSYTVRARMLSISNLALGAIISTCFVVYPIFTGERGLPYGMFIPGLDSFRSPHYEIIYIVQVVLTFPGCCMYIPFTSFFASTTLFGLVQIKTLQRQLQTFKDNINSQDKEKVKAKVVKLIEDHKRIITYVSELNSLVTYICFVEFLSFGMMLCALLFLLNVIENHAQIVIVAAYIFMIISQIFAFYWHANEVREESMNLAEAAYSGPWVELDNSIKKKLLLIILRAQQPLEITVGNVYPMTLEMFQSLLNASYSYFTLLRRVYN
T1 sequence (B0FAQ4 1-474 partner): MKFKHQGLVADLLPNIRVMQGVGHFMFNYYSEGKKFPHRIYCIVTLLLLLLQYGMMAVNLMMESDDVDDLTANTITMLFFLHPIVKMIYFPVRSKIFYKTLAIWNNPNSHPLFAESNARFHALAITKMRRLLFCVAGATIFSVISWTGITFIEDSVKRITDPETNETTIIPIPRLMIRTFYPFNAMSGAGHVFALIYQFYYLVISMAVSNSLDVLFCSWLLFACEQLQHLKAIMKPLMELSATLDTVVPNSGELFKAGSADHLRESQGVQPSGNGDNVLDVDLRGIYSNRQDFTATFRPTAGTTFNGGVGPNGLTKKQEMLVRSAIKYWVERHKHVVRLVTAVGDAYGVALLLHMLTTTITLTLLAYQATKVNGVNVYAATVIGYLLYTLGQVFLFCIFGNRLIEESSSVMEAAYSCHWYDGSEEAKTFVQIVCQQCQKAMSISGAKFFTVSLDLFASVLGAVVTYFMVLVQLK
Excerpt: whole-cell voltage clamp, HEK293T cells on AaOR10/Orco (Ae. aegypti OR10 with A. bakeri Orco) | whole-cell currents of AaOR10/Orco are indistinguishable in EC50 and overall dose-response parameters | measure their response to indole and o-cresol, canonical odorants known to activate AaOR10 heteromers

[2] = biological target: T2, AaOR10 in complex with the Orco from Ae. aegypti (Aedes aegypti, UniProt Q177X3); experiment: whole-cell voltage clamp, HEK293T cells; type: cell-based; settings: agonist
T2 construct: gene GPRor10; both subunits from Ae. aegypti, co-expressed in HEK293T cells; stoichiometry not determined; with Odorant receptor coreceptor
T2 sequence (Q177X3 1-375): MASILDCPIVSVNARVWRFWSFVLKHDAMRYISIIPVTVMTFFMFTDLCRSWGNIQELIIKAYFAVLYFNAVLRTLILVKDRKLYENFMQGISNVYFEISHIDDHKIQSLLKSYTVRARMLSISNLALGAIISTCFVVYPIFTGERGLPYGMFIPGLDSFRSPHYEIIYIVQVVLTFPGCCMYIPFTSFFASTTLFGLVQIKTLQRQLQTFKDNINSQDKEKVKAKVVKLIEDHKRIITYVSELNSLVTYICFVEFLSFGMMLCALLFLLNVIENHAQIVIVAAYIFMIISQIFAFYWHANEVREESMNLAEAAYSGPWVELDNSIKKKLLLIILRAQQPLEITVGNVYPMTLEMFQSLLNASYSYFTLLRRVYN
T2 sequence (Q178U6 1-478 partner): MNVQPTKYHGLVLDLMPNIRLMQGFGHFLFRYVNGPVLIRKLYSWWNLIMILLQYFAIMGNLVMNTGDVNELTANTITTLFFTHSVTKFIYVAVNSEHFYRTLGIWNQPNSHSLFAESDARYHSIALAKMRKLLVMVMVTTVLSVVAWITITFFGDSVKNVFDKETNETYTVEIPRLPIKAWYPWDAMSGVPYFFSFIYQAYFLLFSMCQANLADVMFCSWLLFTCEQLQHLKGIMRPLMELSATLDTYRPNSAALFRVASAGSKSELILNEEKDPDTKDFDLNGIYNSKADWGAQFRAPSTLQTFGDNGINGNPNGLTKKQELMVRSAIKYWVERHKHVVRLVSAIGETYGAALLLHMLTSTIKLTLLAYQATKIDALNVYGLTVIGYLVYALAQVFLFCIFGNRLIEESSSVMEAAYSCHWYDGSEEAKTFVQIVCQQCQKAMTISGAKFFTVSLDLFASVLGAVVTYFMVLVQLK
Excerpt: whole-cell voltage clamp, HEK293T cells on AaOR10 in complex with the Orco from Ae. aegypti | those obtained with AaOR10 in complex with the Orco from Ae. aegypti | AaOR10 with either A. bakeri (black) or Ae. aegypti Orco (gold)

[3] = biological target: T1, AaOR10/Orco (Ae. aegypti OR10 with A. bakeri Orco); experiment: cryo-EM structure of complex; type: binding; settings: 2.9 Å; one site, in the OR10 subunit (S2, S3, S4, S6)
[4] = biological target: Anopheles gambiae odorant receptor OR28 (Anopheles gambiae); experiment: cryo-EM structure; AgOR28 co-expressed with A. bakeri Orco, purified complex; unbound and 2,4,5-trimethylthiazole (TMT)-bound states
[5] = biological target: Aedes aegypti odorant receptor OR10 (Aedes aegypti); experiment: cryo-EM structure; AaOR10/Orco heteromers co-expressed in HEK293 cells (1:1 OR to Orco virus), purified by an affinity tag on the OR subunit, in detergent micelle; unbound and o-cresol-bound states
[6] = far from saturation at high concentration, limiting goodness of fit

Cc1ccccc1O [o-cresol]
EC50 [1, 6]: 13.3 µM
EC50 [2, 6]: 11.3 µM
cryo-EM structure of complex [3]: determined the cryo-EM structure of the AaOR10/Orco complex bound to o-cresol

c1ccc2[nH]ccc2c1 [indole]
EC50 ([1]; Hill coefficient about one): 1.09 µM
EC50 [2]: 1.51 µM

B1: Apocrypta bakeri odorant receptor co-receptor Orco (receptor)
chain: MKFKHQGLVADLLPNIRVMQGVGHFMFNYYSEGKKFPHRIYCIVTLLLLLLQYGMMAVNLMMESDDVDDLTANTITMLFFLHPIVKMIYFPVRSKIFYKTLAIWNNPNSHPLFAESNARFHALAITKMRRLLFCVAGATIFSVISWTGITFIEDSVKRITDPETNETTIIPIPRLMIRTFYPFNAMSGAGHVFALIYQFYYLVISMAVSNSLDVLFCSWLLFACEQLQHLKAIMKPLMELSATLDTVVPNSGELFKAGSADHLRESQGVQPSGNGDNVLDVDLRGIYSNRQDFTATFRPTAGTTFNGGVGPNGLTKKQEMLVRSAIKYWVERHKHVVRLVTAVGDAYGVALLLHMLTTTITLTLLAYQATKVNGVNVYAATVIGYLLYTLGQVFLFCIFGNRLIEESSSVMEAAYSCHWYDGSEEAKTFVQIVCQQCQKAMSISGAKFFTVSLDLFASVLGAVVTYFMVLVQLK
stoichiometry N (Orco subunits per OR subunit) [4]: 3
stoichiometry N (Orco subunits per OR subunit) [5]: 3
